Test results taken from patent EP1015459B9 (ABBOTT LABORATORIES, priority 1997, dated 1999).

Test system: human mixed lymphocyte reaction (MLR)
Test: human mixed lymphocyte reaction (MLR) assay
Type: cell-based
Settings: immunosuppressant activity, read-out: Human MLR IC50 ± S.E.M.
Method: The immunosuppressant activity of the compounds of the present invention was determined using the human mixed lymphocyte reaction (MLR) assay described by Kino, T. et al. in Transplantation Proceedings, XIX(5):36-39. Suppl. 6 (1987). […]

IC50: 0.91 ± 0.36 nM
Structure (SMILES): CO[C@H]1C[C@@H]2CC[C@@H](C)[C@@](O)(O2)C(=O)C(=O)N2CCCC[C@H]2C(=O)O[C@H]([C@H](C)C[C@@H]2CC[C@@H](O)[C@H](OC)C2)CC(=O)[C@H](C)/C=C(\C)[C@@H](O)[C@@H](OC)C(=O)[C@H](C)C[C@H](C)/C=C/C=C/C=C/1C [Rapamycin, reference compound]
